Entries after “also recorded” stand apart in the source; their conditions may differ.
Key:
[1] = system: prostate cancer xenografts; assay: Subcutaneous prostate cancer xenografts; type: in vivo, nude mice
Description: (§1) FIGS. 10A-E. D2 blocks proliferation of prostate cancer cells in vitro and in vivo (a) Effect of pretreatment with 100 nM of D1 and D2 on DHT-induced proliferation in multiple prostate cancer cell lines in MTT assay. Numbers are normalized to a baseline of 100, which represents the untreated rate of proliferation. (b) Effect of pretreatment with 100 nM of D1 and D2 on DHT-induced proliferation in LNCaPcells on a Cyquant assay. (c) Dose dependent curve of D2 on proliferation of LAPC4 cells. (d) Rescue of DHT induced proliferation by overexpression of PELP1 following suppression of DHT induced proliferation with 100 nM of D2. (e). Effect of direct intratumoral injections of D1 and D2 on the proliferation of prostate cancer xenografts in animal models: Following establishment of subcutaneous xenografts in animal models, daily direct intratumoral injections of D1 and D2 were performed. Bioluminesence imaging was used to track the growth of the tumors and the effect of D1 and D2 quantitated as shown in the graph.
They have shown that this synthetic peptidomimetic D2 is capable of blocking AR-PELP-1 interaction, nuclear translocation of AR, AR mediated genomic signaling as well as DHT-mediated proliferation of prostate cancer cells in vitro. The IC50 of D2 appears to be around 40 nM. […]

PSA protein = assay: DHT-induced PSA protein expression (western blot); type: cell-based; settings: protein level
From the text: (§2) FIG. 8 confirms these findings by QPCR experiment evaluating the effect of D1 and D2 on DHT-induced TMPRSS and PSA gene expression at the RNA level in LNCaP cells (bottom left panel) and by western blot analyses as evaluated by the effect of D1 and D2 on the expression of PSA, androgen receptor and actin in LAPC4 cells at the protein level. […] Confirmation of these findings were obtained by QPCR and western blot analyses.
(§3) At the protein level, D2, but not D1, was able to block DHT-induced expression of PSA protein. Again, the suppresion of DHT-induced transcription from an ARE could be overcome by overexpression of either AR or PELP1 ([…]). Overexpression of PELP1 was able to rescue the D2-mediated suppression of DHT-induced transcription nearly back to baseline.

[2] = system: AR-negative PCa cell lines such as DU145 or PC3; assay: DHT-induced proliferation of AR-negative PCa cell lines; type: cell-based
Description: as §1
The importance of PELP1 and AR interaction on DHT-mediated proliferation of prostate cancer cells were confirmed using rescue experiments, where D2 suppression of DHT-mediated proliferation was overcome by overexpression of PELP1 in LNCaP PCa cells.

[3] = system: AR binding on PSA promoter; assay: ChIP assay of AR binding on PSA promoter; type: cell-based
From the text: FIG. 9. […] This effect of D2 could be rescued by overexpression of AR (bottom left panel) or PELP1 (bottom right panel).
as §3

PSA and TMPRSS promoter = assay: QPCR of PSA and TMPRSS, DHT-induced; type: cell-based
From the text: as §2, §3

AR nuclear translocation = assay: DHT-induced nuclear translocation of AR in LNCaP cells; type: cell-based
Description: FIGS. 13A-B. Effect on DHT-induced nuclear translocation of exogenous AR-GFP in LNCaP cells transiently transfected with AR. (a) Blue stain is DAPI (for nucleus) and green is AR (GFP). Baseline untreated LNCaP cells are shown in top left panel. Cells were pretreated with DMSO (left panel), 100 nM D1 (middle panel) and 100 nM D2 (right panel) and then treated with 1 nM DHT. AR nuclear translocation was visualized at 4 hours following DHT treatment. (b) Nuclear and cytoplasmic extracts were collected from similar cells and subject to western analyses.
FIG. 13 shos that pretreatment with D2 blocked DHT-induced translocation of AR-GFP to the nucleus in LnCaP cells compared to the control D1 or DMSO.

[4] = target: T1, interaction between AR and hsp90 (Homo sapiens, UniProt P10275); assay: AR-hsp90 interaction (co-immunoprecipitation); type: cell-based; settings: hsp90 lacks a LXXLL motif
T1 construct: endogenous in cells; host or cells: prostate cancer cells
T1 sequence (P10275 1-920): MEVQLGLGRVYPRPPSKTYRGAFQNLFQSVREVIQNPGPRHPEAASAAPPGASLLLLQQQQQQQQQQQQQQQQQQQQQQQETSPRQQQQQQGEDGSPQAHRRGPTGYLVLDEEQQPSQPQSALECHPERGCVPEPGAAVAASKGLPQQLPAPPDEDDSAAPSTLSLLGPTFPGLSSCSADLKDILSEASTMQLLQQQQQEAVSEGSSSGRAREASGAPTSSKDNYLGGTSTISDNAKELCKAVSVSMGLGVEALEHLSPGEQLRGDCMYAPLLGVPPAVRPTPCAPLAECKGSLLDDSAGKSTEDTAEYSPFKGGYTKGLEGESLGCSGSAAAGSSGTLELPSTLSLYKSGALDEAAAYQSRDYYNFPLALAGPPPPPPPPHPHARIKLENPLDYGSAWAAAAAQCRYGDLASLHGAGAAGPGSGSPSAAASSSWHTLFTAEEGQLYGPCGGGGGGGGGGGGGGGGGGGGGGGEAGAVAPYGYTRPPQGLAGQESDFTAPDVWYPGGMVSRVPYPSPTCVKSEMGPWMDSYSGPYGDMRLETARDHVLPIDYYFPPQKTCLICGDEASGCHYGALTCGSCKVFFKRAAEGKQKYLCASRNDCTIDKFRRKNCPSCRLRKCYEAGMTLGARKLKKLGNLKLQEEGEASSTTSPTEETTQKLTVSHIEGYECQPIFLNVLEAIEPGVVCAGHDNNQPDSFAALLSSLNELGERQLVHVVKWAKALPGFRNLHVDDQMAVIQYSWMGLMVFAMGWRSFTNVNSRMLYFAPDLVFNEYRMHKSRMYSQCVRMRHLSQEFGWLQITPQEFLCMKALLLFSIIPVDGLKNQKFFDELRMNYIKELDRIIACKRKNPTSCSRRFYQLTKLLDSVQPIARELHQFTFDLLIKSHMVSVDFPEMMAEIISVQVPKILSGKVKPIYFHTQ

[5] = Stability of D2 in culture and in LNCaP cell lysate (HPLC); type: in vitro ADME
From the text: FIGS. 4A-F. (FIG. 4A) Chemical structure of the bis-benzamide (D2). (FIG. 4B) the lowest-energy conformation of D2. (FIG. 4C) the stereoview of the superimposition of D2 on a helical turn.

## COC(=O)c1ccc(NC(=O)c2ccc([N+](=O)[O-])c(OCC(C)C)c2)c(OCC(C)C)c1 [D2]
[1]; nude mice, intratumoral or intraperitoneal administration
  growth of prostate cancer cells implanted subcutaneously: significantly abrogate the growth
[1]; protein extracts of tumors after daily intratumoral injections
  AR-PELP1 complex formation in xenograft tumors: biologically active in blocking AR-PELP1 interaction; also recorded: able to block
PSA protein
  DHT-induced expression of PSA protein: able to block
[2]
  DHT-induced proliferation of AR-negative PCa cell lines: but not AR-negative PCa cell lines
[3]
  DHT-induced AR binding on PSA promoter (ChIP): blocked DHT-induced AR binding; also recorded: blocked AR binding to its cognate DNA sequence
PSA and TMPRSS promoter
  DHT-induced transcription from ARE-driven promoters at RNA level (QPCR): block DHT-induced transcription from ARE-driven promoters was confirmed
AR nuclear translocation; 100 nM pretreatment, 1 nM DHT, 4 hours
  DHT-induced translocation of AR-GFP to the nucleus (imaging): blocked
AR nuclear translocation; upon addition of DHT
  AR nuclear translocation (nuclear and cytoplasmic extracts): prevents AR nuclear translocation
[4]
  interaction between AR and hsp90: not able to affect
[5]; LNCaP cell lysate, 37° C., 7 days
  stability in cell lysate: stable in cell lysate of LNCaP over 7 days
[5]; in culture, FIG. 4E
  stability in culture (HPLC): single peak on the HPLC

Reference: patent US10618869B2, “Oligo-benzamide compounds and their use” (The Board of Regents of the University of Texas System, priority 2010, dated 2020)
